Experimental findings from publication PMC11241395 (International Journal of Molecular Sciences, 2024) are described below.

Each structure is given as a SMILES string. “Also recorded” adds a separate entry of the source. Like-named read-outs stand apart in the source and are kept apart here.

Series [1] deals with SKBR-3, SKOV-3, PC-3, and U-87 cancer cell lines. Put plainly: MTT cytotoxicity assay, four cancer cell lines taken together. In kind it is cell-based, human. Particulars: span over the four cancer cell lines. As for the experimental part: (§1) This activity was evaluated in vitro using the standard MTT method (enzymatic reduction of 3-[4,5-dimethylthiazole-2-yl]-2,5-diphenyltetrazolium bromide, MTT, to MTT-formazan) based on a viability assay.
(§2) Cytotoxic activity: Human cancer cells SKBR-3 (human breast cancer cell line) and SKOV-3 (ovarian cancer cell line) were cultured in McCoy’s Modified Medium. Human cancer cells PC-3 (human prostate cancer cell line) were cultured in an F-12K medium. The Human Dermal Fibroblast (HDF) cell line was cultured in Fibroblast Basal Medium. The U-87 cell line was cultured in EMEM medium. Each medium was supplemented with 10% foetal bovine serum, 1% L- glutamine, and 1% penicillin/streptomycin solution. The cell lines were kept in an incubator at 37 °C. All the cell lines and mediums were obtained from the American Type Culture Collection (ATCC) supplied by LGC-Standards (Lomianki, Poland).
(§3) The MTT assay was conducted as described earlier.
On the technique in general: Tetrazolium dyes change colour on reduction, which living cells bring about.

For series [2], the system named is HDF (regular fibroblast cell line). Put plainly: MTT cytotoxicity assay, normal HDF cells. In kind it is cell-based. Particulars: Homo sapiens, read-out: IC50 (SD), HDF. On the procedure:
as §1, §2, §3

For series [3], the system named is PC-3 (human prostate carcinoma). Kind of series: MTT cytotoxicity assay, PC-3. In kind it is cell-based. The following applies: read-out: IC50 (SD), PC-3. As for the experimental part:
as §1, §2, §3

Series [4] has as its system SKOV-3 (human ovarian cystadenocarcinoma). Kind of series: MTT cytotoxicity assay, SKOV-3. In kind it is cell-based. The following applies: SK-OV-3, read-out: IC50 (SD), SKOV-3. On the procedure:
as §1, §2, §3

Series [5] relates to SKBR-3 (human breast adenocarcinoma). Put plainly: MTT cytotoxicity assay, SKBR-3. The class given is cell-based. Particulars: SK-BR-3, read-out: IC50 (SD), SKBR-3. On the procedure: as §1, §2, §3
Series [6] has as its system U-87 (human glioblastoma). Put plainly: MTT cytotoxicity assay, U-87. In kind it is cell-based. Particulars: read-out: IC50 (SD), U-87. As for the experimental part:
as §1, §2, §3

A short description of series [7]: DPPH radical-scavenging assay. The following applies: sample 1.0 mg/mL in DMSO, 30 min, 517 nm; compared with OA (1). As for the experimental part:
The results are presented as % inhibition of the DPPH radical and Trolox equivalent, calculated from the standard curve (Figure 4). Activity assays were performed in eight repetitions.
The 2,2-diphenyl-1-picrylhydrazyl (DPPH) assay was performed according to Garbiec et al. with modifications. Briefly, 25 μL of the sample at a concentration of 1.0 mg/mL dissolved in dimethyl sulfoxide (DMSO) was mixed with 175 μL of DPPH solution (3.9 mg in 50 mL of methanol). The reaction mixture was shaken and incubated in the dark at room temperature for 30 min. The control sample contained 25 μL of DMSO and 175 μL of DPPH solution. Absorbance was measured at 517 nm. The inhibition of the DPPH radical by the sample was calculated according to the following formula: DPPH-scavenging activity (%) = ((AC − AS)/AC) × 100% where AC is the absorbance of the control and AS is the absorbance of the sample.
The results were presented as % inhibition of the DPPH radical and Trolox equivalent, calculated from the standard curve. Activity assays were performed in 8 repetitions.
Background: DPPH is a stable violet radical that fades when it is reduced.

As to `CC1(C)CC[C@]2(C(=O)OCCCCCCCCOC(=O)[C@]34CCC(C)(C)CC3C3=CCC5[C@@]6(C)CC[C@H](O)C(C)(C)C6CC[C@@]5(C)[C@]3(C)CC4)CC[C@]3(C)C(=CCC4[C@@]5(C)CC[C@H](O)C(C)(C)C5CC[C@]43C)C2C1` (stereo partly shown) [Compound 2j], the IC50 in series [1] (Homo sapiens) was 9.81 to 10.7 µM; in series [2], 16 µM; in series [3], 9.81 µM; in series [4] it was 10.3 µM; in series [5], 9.99 µM; in series [6], 10.7 µM.

As to `CC1(C)CC[C@]2(C(=O)OC/C=C/COC(=O)[C@]34CCC(C)(C)CC3C3=CCC5[C@@]6(C)CC[C@H](O)C(C)(C)C6CC[C@@]5(C)[C@]3(C)CC4)CC[C@]3(C)C(=CCC4[C@@]5(C)CC[C@H](O)C(C)(C)C5CC[C@]43C)C2C1` (stereo partly shown) [Compound 2f], the IC50 was 4.79 to 8.22 µM in series [1] (Homo sapiens); 2.78 µM in series [2]; 5.11 µM in series [3]; 4.79 µM in series [4]; 5.09 µM in series [5]; 4.91 µM in series [6]. The “DPPH radical inhibition expressed as Trolox equivalent” value (from here on “DPPH radical inhibition expressed”) in series [7] was “highest level of antioxidant activity; also recorded: significantly higher”.

As for `CC1(C)CC[C@]2(C(=O)O)CC[C@]3(C)C(=CC[C@@H]4[C@@]5(C)CC[C@H](O)C(C)(C)[C@@H]5CC[C@]43C)[C@@H]2C1` [1 (OA), Oleanolic acid, reference compound], the IC50 is 18 to 19 µM in series [1] (Homo sapiens); ~25 µM in series [2] (HDF); 18.8 µM in series [4]; 19.6 µM in series [5]; 18.2 µM in series [6].

Take `CC1(C)CC[C@]2(C(=O)OCCCCCCCCCCCCOC(=O)[C@]34CCC(C)(C)CC3C3=CCC5[C@@]6(C)CC[C@H](O)C(C)(C)C6CC[C@@]5(C)[C@]3(C)CC4)CC[C@]3(C)C(=CCC4[C@@]5(C)CC[C@H](O)C(C)(C)C5CC[C@]43C)C2C1` (stereo partly shown) [Compound 2n]: the concentration for half-maximal inhibition (IC50) was 4.79 to 8.22 µM in series [1] (Homo sapiens); 7.3 µM in series [2]; 6.96 µM in series [3]; 7.41 µM in series [4]; 6.79 µM in series [5]; 6.51 µM in series [6].

For the compound `CC1(C)CC[C@]2(C(=O)OCCCCCCOC(=O)[C@]34CCC(C)(C)CC3C3=CCC5[C@@]6(C)CC[C@H](O)C(C)(C)C6CC[C@@]5(C)[C@]3(C)CC4)CC[C@]3(C)C(=CCC4[C@@]5(C)CC[C@H](O)C(C)(C)C5CC[C@]43C)C2C1` (stereo partly shown) [Compound 2h], the IC50 in series [2] was determined as 17.3 µM; in series [3], 5.34 µM; in series [4], 5.39 µM; in series [5] it was 6.02 µM; in series [6] it was 5.87 µM.

As for `CC1(C)CC[C@]2(C(=O)OCOC(=O)[C@]34CCC(C)(C)CC3C3=CCC5[C@@]6(C)CC[C@H](O)C(C)(C)C6CC[C@@]5(C)[C@]3(C)CC4)CC[C@]3(C)C(=CCC4[C@@]5(C)CC[C@H](O)C(C)(C)C5CC[C@]43C)C2C1` (stereo partly shown) (hydrate or solvate) [Compound 2a], the melting point was in the range of 183 to 185 °C.

`CC1(C)CC[C@]2(C(=O)OCCCCCOC(=O)[C@]34CCC(C)(C)CC3C3=CCC5[C@@]6(C)CC[C@H](O)C(C)(C)C6CC[C@@]5(C)[C@]3(C)CC4)CC[C@]3(C)C(=CCC4[C@@]5(C)CC[C@H](O)C(C)(C)C5CC[C@]43C)C2C1` (stereo partly shown) [Compound 2g]: the IC50 was 4.79 to 8.22 µM in series [1] (Homo sapiens); 3.37 µM in series [2]; 5.8 µM in series [3]; 5.16 µM in series [4]; 5.21 µM in series [5]; 5.32 µM in series [6].

As for `CC1(C)CC[C@]2(C(=O)OCCCCCCCOC(=O)[C@]34CCC(C)(C)CC3C3=CCC5[C@@]6(C)CC[C@H](O)C(C)(C)C6CC[C@@]5(C)[C@]3(C)CC4)CC[C@]3(C)C(=CCC4[C@@]5(C)CC[C@H](O)C(C)(C)C5CC[C@]43C)C2C1` (stereo partly shown) [Compound 2i], the IC50 in series [1] (Homo sapiens) was 3.06 to 4.58 µM; in series [2], 5.39 µM; in series [3], 3.16 µM; in series [4], 3.68 µM; in series [5], 3.46 µM; in series [6] it was 3.06 µM.

Consider `CC1(C)CC[C@]2(C(=O)OCCCCCCCCCOC(=O)[C@]34CCC(C)(C)CC3C3=CCC5[C@@]6(C)CC[C@H](O)C(C)(C)C6CC[C@@]5(C)[C@]3(C)CC4)CC[C@]3(C)C(=CCC4[C@@]5(C)CC[C@H](O)C(C)(C)C5CC[C@]43C)C2C1` (stereo partly shown) [Compound 2k], for which the IC50 in series [1] (Homo sapiens) was 4.79 to 8.22 µM; in series [2], 16.8 µM; in series [3], 6.93 µM; in series [4] it was 6.89 µM; in series [5] it was 6.93 µM; in series [6], 7.34 µM.

Take `CC1(C)CC[C@]2(C(=O)OCCCCCCCCCCCOC(=O)[C@]34CCC(C)(C)CC3C3=CCC5[C@@]6(C)CC[C@H](O)C(C)(C)C6CC[C@@]5(C)[C@]3(C)CC4)CC[C@]3(C)C(=CCC4[C@@]5(C)CC[C@H](O)C(C)(C)C5CC[C@]43C)C2C1` (stereo partly shown) [Compound 2m]: the IC50 in series [1] (Homo sapiens) is 3.06 to 4.58 µM; in series [2], 7.43 µM; in series [3], 3.91 µM; in series [4] it was 4.58 µM; in series [5], 3.93 µM; in series [6], 4.25 µM.

On to `CC1(C)CC[C@]2(C(=O)OCOC(=O)[C@]34CCC(C)(C)CC3C3=CCC5[C@@]6(C)CC[C@H](O)C(C)(C)C6CC[C@@]5(C)[C@]3(C)CC4)CC[C@]3(C)C(=CCC4[C@@]5(C)CC[C@H](O)C(C)(C)C5CC[C@]43C)C2C1` (stereo partly shown) [Compound 2a], for which the IC50 in series [1] (Homo sapiens) is 3.06 to 4.58 µM; in series [2], 6.56 µM; in series [3], 3.38 µM; in series [4] it was 3.89 µM; in series [5], 3.96 µM; in series [6] it was 3.32 µM. Besides, the “DPPH radical inhibition expressed” value in series [7] was “by far the highest activity; also recorded: significantly higher”.

As for `CC1(C)CC[C@]2(C(=O)OCCCOC(=O)[C@]34CCC(C)(C)CC3C3=CCC5[C@@]6(C)CC[C@H](O)C(C)(C)C6CC[C@@]5(C)[C@]3(C)CC4)CC[C@]3(C)C(=CCC4[C@@]5(C)CC[C@H](O)C(C)(C)C5CC[C@]43C)C2C1` (stereo partly shown) [Compound 2c], the IC50 in series [1] (Homo sapiens) is 4.79 to 8.22 µM; in series [2] it was 18.9 µM; in series [3] it was 7.4 µM; in series [4] it was 8.22 µM; in series [5], 7.64 µM; in series [6], 7.46 µM.

As to `CC1(C)CC[C@]2(C(=O)OCCOC(=O)[C@]34CCC(C)(C)CC3C3=CCC5[C@@]6(C)CC[C@H](O)C(C)(C)C6CC[C@@]5(C)[C@]3(C)CC4)CC[C@]3(C)C(=CCC4[C@@]5(C)CC[C@H](O)C(C)(C)C5CC[C@]43C)C2C1` (stereo partly shown) [Compound 2b], the IC50 in series [1] (Homo sapiens) is 4.79 to 8.22 µM; in series [2], 11.2 µM; in series [3] it was 6.43 µM; in series [4], 6.49 µM; in series [5], 6.67 µM; in series [6], 6.59 µM. Moreover, the “DPPH radical inhibition expressed” value in series [7] is reported as “highest level of antioxidant activity; also recorded: significantly higher”.

Turning to `CC1(C)CC[C@]2(C(=O)OCCCCOC(=O)[C@]34CCC(C)(C)CC3C3=CCC5[C@@]6(C)CC[C@H](O)C(C)(C)C6CC[C@@]5(C)[C@]3(C)CC4)CC[C@]3(C)C(=CCC4[C@@]5(C)CC[C@H](O)C(C)(C)C5CC[C@]43C)C2C1` (stereo partly shown) [Compound 2d], the IC50 in series [2] was found to be 2.95 µM; in series [3], 1.64 µM; in series [4], 1.56 µM; in series [5], 1.12 µM; in series [6] it was 1.2 µM.

Consider `CC1(C)CC[C@]2(C(=O)OCCCCCCCCCCOC(=O)[C@]34CCC(C)(C)CC3C3=CCC5[C@@]6(C)CC[C@H](O)C(C)(C)C6CC[C@@]5(C)[C@]3(C)CC4)CC[C@]3(C)C(=CCC4[C@@]5(C)CC[C@H](O)C(C)(C)C5CC[C@]43C)C2C1` (stereo partly shown) [Compound 2l], for which the half-inhibitory concentration (IC50) in series [1] (Homo sapiens) is 18.4 µM; in series [1] it was 18.7 µM; in series [2], 36.3 µM; in series [3] it was 18.4 µM; in series [4] it was 18.4 µM; in series [5], 18.7 µM. Besides, the IC50 in series [6] came to 18.7 µM.

Consider `CC1(C)CC[C@]2(C(=O)OC/C=C\COC(=O)[C@]34CCC(C)(C)CC3C3=CCC5[C@@]6(C)CC[C@H](O)C(C)(C)C6CC[C@@]5(C)[C@]3(C)CC4)CC[C@]3(C)C(=CCC4[C@@]5(C)CC[C@H](O)C(C)(C)C5CC[C@]43C)C2C1` (stereo partly shown) [Compound 2e], for which the IC50 came to 2.68 µM in series [2]; 2.27 µM in series [3]; 2.09 µM in series [4]; 2.61 µM in series [5]; 2.74 µM in series [6].

For orientation: IC50 means the concentration that inhibits the measured activity by half. A word on the melting point: it is the temperature of the solid-liquid transition.
